# Laboratory results: ChEMBL document CHEMBL3351493, “Beta-aminoketones as prodrugs for selective irreversible inhibitors of type-1 methionine aminopeptidases” (Bioorg Med Chem Lett, 2014)
# The source made the active and inactive calls. The rule behind the calls is not given here.
# Test system: A-431
# Assay: Cytotoxicity against human A431 cells at 1.6 to 100 ug/ml after 72 hrs by crystal violet assay
# Assay type: functional, cell-based
# Settings: not given
row,SMILES,Activity
1,CN(C)CC1Cc2cc(Cl)ccc2C1=O.Cl (centres undefined),Active
2,C=C1Cc2cc(C)ccc2C1=O,Active
3,C=C1Cc2cc(Cl)ccc2C1=O,Active
4,C=C1Cc2ccc(OC)cc2C1=O,Active
5,C=C1Cc2cc(Br)ccc2C1=O,Active
6,Cc1ccc2c(c1)CC(CN(C)C)C2=O.Cl (centres undefined),Active
7,COc1ccc2c(c1)C(=O)C(CN(C)C)C2.Cl (centres undefined),Active
8,C=C1Cc2cc(OC)c(OC)cc2C1=O,Active
9,C=C1Cc2ccc(C)cc2C1=O,Active

# Molecular target: Methionine aminopeptidase 1 (Homo sapiens, UniProt P53582)
# Assay: Inhibition of N-terminal poly-His-tagged human MetAP-1 expressed in Escherichia coli BL21(DE3) incubated for 30 mins before MGMM substrate addition by fluorescence assay
# Settings: not given
row,IC50,SMILES
1,Not Active,C=C1Cc2cc(OC)c(OC)cc2C1=O

# Test system: not listed separately
# Assay: Cytotoxicity against human Flow 2002 cells at 1.6 to 100 ug/ml after 72 hrs by crystal violet assay
# Assay type: cell-based
# Settings: flow 2002, 72 h
row,SMILES,Activity
1,CN(C)CC1Cc2cc(Cl)ccc2C1=O.Cl (centres undefined),Toxic
2,C=C1Cc2cc(C)ccc2C1=O,Toxic
3,C=C1Cc2cc(Cl)ccc2C1=O,Toxic
4,C=C1Cc2ccc(OC)cc2C1=O,Toxic
5,C=C1Cc2cc(Br)ccc2C1=O,Toxic
6,Cc1ccc2c(c1)CC(CN(C)C)C2=O.Cl (centres undefined),Toxic
7,COc1ccc2c(c1)C(=O)C(CN(C)C)C2.Cl (centres undefined),Toxic
8,C=C1Cc2cc(OC)c(OC)cc2C1=O,Toxic
9,C=C1Cc2ccc(C)cc2C1=O,Toxic

# Test system: A 172
# Assay: Cytotoxicity against human A172 cells at 1.6 to 100 ug/ml after 72 hrs by crystal violet assay
# Assay type: functional, cell-based
# Settings: not given
row,SMILES,Activity
1,CN(C)CC1Cc2cc(Cl)ccc2C1=O.Cl (centres undefined),Active
2,C=C1Cc2cc(C)ccc2C1=O,Active
3,C=C1Cc2cc(Cl)ccc2C1=O,Active
4,C=C1Cc2ccc(OC)cc2C1=O,Active
5,C=C1Cc2cc(Br)ccc2C1=O,Active
6,Cc1ccc2c(c1)CC(CN(C)C)C2=O.Cl (centres undefined),Active
7,COc1ccc2c(c1)C(=O)C(CN(C)C)C2.Cl (centres undefined),Active
8,C=C1Cc2cc(OC)c(OC)cc2C1=O,Active
9,C=C1Cc2ccc(C)cc2C1=O,Active

# Test system: SW707
# Assay: Cytotoxicity against human SW707 cells at 1.6 to 100 ug/ml after 72 hrs by crystal violet assay
# Assay type: functional, cell-based
# Settings: not given
row,SMILES,Activity
1,CN(C)CC1Cc2cc(Cl)ccc2C1=O.Cl (centres undefined),Active
2,C=C1Cc2cc(C)ccc2C1=O,Active
3,C=C1Cc2cc(Cl)ccc2C1=O,Active
4,C=C1Cc2ccc(OC)cc2C1=O,Active
5,C=C1Cc2cc(Br)ccc2C1=O,Active
6,Cc1ccc2c(c1)CC(CN(C)C)C2=O.Cl (centres undefined),Active
7,COc1ccc2c(c1)C(=O)C(CN(C)C)C2.Cl (centres undefined),Active
8,C=C1Cc2cc(OC)c(OC)cc2C1=O,Active
9,C=C1Cc2ccc(C)cc2C1=O,Active

# Molecular target: Methionine aminopeptidase (Staphylococcus aureus (strain COL), UniProt Q5HEN6)
# Assay: Inhibition of N-terminal poly-His-tagged Staphylococcus aureus COL MetAP expressed in Escherichia coli BL21(DE3) incubated for 30 mins before MGMM substrate addition by fluorescence assay
# Design: species or system Staphylococcus aureus subsp. aureus COL
# Settings: read-out: IC50
row,IC50 [nM],SMILES
1,7000,CN(C)CC1Cc2cc(Cl)ccc2C1=O.Cl (centres undefined)
2,13300,C=C1Cc2cc(C)ccc2C1=O
3,32000,Cc1ccc2c(c1)CC(CN(C)C)C2=O.Cl (centres undefined)
4,17000,COc1ccc2c(c1)C(=O)C(CN(C)C)C2.Cl (centres undefined)
5,18900,C=C1Cc2cc(OC)c(OC)cc2C1=O

# Test system: BT-474
# Assay: Cytotoxicity against human BT474 cells at 1.6 to 100 ug/ml after 72 hrs by crystal violet assay
# Assay type: functional, cell-based
# Settings: not given
row,SMILES,Activity
1,CN(C)CC1Cc2cc(Cl)ccc2C1=O.Cl (centres undefined),Active
2,C=C1Cc2cc(C)ccc2C1=O,Active
3,C=C1Cc2cc(Cl)ccc2C1=O,Active
4,C=C1Cc2ccc(OC)cc2C1=O,Active
5,C=C1Cc2cc(Br)ccc2C1=O,Active
6,Cc1ccc2c(c1)CC(CN(C)C)C2=O.Cl (centres undefined),Active
7,COc1ccc2c(c1)C(=O)C(CN(C)C)C2.Cl (centres undefined),Active
8,C=C1Cc2cc(OC)c(OC)cc2C1=O,Active
9,C=C1Cc2ccc(C)cc2C1=O,Active

# Test system: not listed separately
# Assay: Half life assessed as decomposition into amines and unsaturated ketones at 250 uM in 50 mM Tris/maleate pH 7.5 buffer by HPLC method
# Assay type: physicochemical
# Settings: Tris/maleate buffer, pH 7.5
row,half-life at 250 µM [min],SMILES
1,7,CN(C)CC1Cc2cc(Cl)ccc2C1=O.Cl (centres undefined)
2,24,Cc1ccc2c(c1)CC(CN(C)C)C2=O.Cl (centres undefined)
3,12,COc1ccc2c(c1)C(=O)C(CN(C)C)C2.Cl (centres undefined)

# Test system: HaCaT
# Assay: Cytotoxicity against human HaCaT cells at 1.6 to 100 ug/ml after 72 hrs by crystal violet assay
# Assay type: cell-based
# Settings: not given
row,SMILES,Activity
1,CN(C)CC1Cc2cc(Cl)ccc2C1=O.Cl (centres undefined),Toxic
2,C=C1Cc2cc(C)ccc2C1=O,Toxic
3,C=C1Cc2cc(Cl)ccc2C1=O,Toxic
4,C=C1Cc2ccc(OC)cc2C1=O,Toxic
5,C=C1Cc2cc(Br)ccc2C1=O,Toxic
6,Cc1ccc2c(c1)CC(CN(C)C)C2=O.Cl (centres undefined),Toxic
7,COc1ccc2c(c1)C(=O)C(CN(C)C)C2.Cl (centres undefined),Toxic
8,C=C1Cc2cc(OC)c(OC)cc2C1=O,Toxic
9,C=C1Cc2ccc(C)cc2C1=O,Toxic

# Test system: Escherichia coli
# Assay: Antimicrobial activity against Escherichia coli BL21(DE3) assessed as inhibition of bacterial growth at 200 uM incubated at 37 degC for 7 hrs
# Assay type: functional
# Settings: BL21-DE3, 7 h
row,SMILES,inhibition at 200 µM [%]
1,CN(C)CC1Cc2cc(Cl)ccc2C1=O.Cl (centres undefined),71
2,C=C1Cc2cc(C)ccc2C1=O,100
3,C=C1Cc2cc(Cl)ccc2C1=O,27
4,C=C1Cc2cc(Br)ccc2C1=O,21
5,Cc1ccc2c(c1)CC(CN(C)C)C2=O.Cl (centres undefined),100
6,COc1ccc2c(c1)C(=O)C(CN(C)C)C2.Cl (centres undefined),19
7,C=C1Cc2cc(OC)c(OC)cc2C1=O,25

# Molecular target: T1, Methionine aminopeptidase (Escherichia coli K-12, UniProt P0AE18)
# T1 sequence (P0AE18 whole entry): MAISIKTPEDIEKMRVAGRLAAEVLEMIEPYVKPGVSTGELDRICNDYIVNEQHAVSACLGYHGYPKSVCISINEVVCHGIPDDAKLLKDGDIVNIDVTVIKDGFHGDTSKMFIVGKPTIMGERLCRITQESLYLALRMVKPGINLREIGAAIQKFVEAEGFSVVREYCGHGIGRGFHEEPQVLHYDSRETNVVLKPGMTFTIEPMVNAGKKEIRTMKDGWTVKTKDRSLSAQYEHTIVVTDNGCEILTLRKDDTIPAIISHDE
# Assay: Inhibition of C-terminal poly-His-tagged Escherichia coli MetAP expressed in Escherichia coli BL21(DE3) incubated for 30 mins before MGMM substrate addition by fluorescence assay
# Settings: read-out: IC50
row,SMILES,IC50 [nM]
1,CN(C)CC1Cc2cc(Cl)ccc2C1=O.Cl (centres undefined),840
2,C=C1Cc2cc(Cl)ccc2C1=O,230
3,Cc1ccc2c(c1)CC(CN(C)C)C2=O.Cl (centres undefined),1100
4,COc1ccc2c(c1)C(=O)C(CN(C)C)C2.Cl (centres undefined),830
5,C=C1Cc2cc(OC)c(OC)cc2C1=O,700

# Continued, values first:
row,IC50 [nM],SMILES
1,400,C=C1Cc2cc(C)ccc2C1=O
2,670,C=C1Cc2ccc(OC)cc2C1=O
3,190,C=C1Cc2cc(Br)ccc2C1=O
4,800,C=C1Cc2ccc(C)cc2C1=O

# Test system: Calu-6
# Assay: Cytotoxicity against human Calu6 cells at 1.6 to 100 ug/ml after 72 hrs by crystal violet assay
# Assay type: functional, cell-based
# Settings: not given
row,SMILES,Activity
1,CN(C)CC1Cc2cc(Cl)ccc2C1=O.Cl (centres undefined),Active
2,C=C1Cc2cc(C)ccc2C1=O,Active
3,C=C1Cc2cc(Cl)ccc2C1=O,Active
4,C=C1Cc2ccc(OC)cc2C1=O,Active
5,C=C1Cc2cc(Br)ccc2C1=O,Active
6,Cc1ccc2c(c1)CC(CN(C)C)C2=O.Cl (centres undefined),Active
7,COc1ccc2c(c1)C(=O)C(CN(C)C)C2.Cl (centres undefined),Active
8,C=C1Cc2cc(OC)c(OC)cc2C1=O,Active
9,C=C1Cc2ccc(C)cc2C1=O,Active

# Test system: CAPAN-1
# Assay: Cytotoxicity against human Capan1 cells at 1.6 to 100 ug/ml after 72 hrs by crystal violet assay
# Assay type: functional, cell-based
# Settings: not given
row,SMILES,Activity
1,CN(C)CC1Cc2cc(Cl)ccc2C1=O.Cl (centres undefined),Active
2,C=C1Cc2cc(C)ccc2C1=O,Active
3,C=C1Cc2cc(Cl)ccc2C1=O,Active
4,C=C1Cc2ccc(OC)cc2C1=O,Active
5,C=C1Cc2cc(Br)ccc2C1=O,Active
6,Cc1ccc2c(c1)CC(CN(C)C)C2=O.Cl (centres undefined),Active
7,COc1ccc2c(c1)C(=O)C(CN(C)C)C2.Cl (centres undefined),Active
8,C=C1Cc2cc(OC)c(OC)cc2C1=O,Active
9,C=C1Cc2ccc(C)cc2C1=O,Active

# Molecular target: Methionine aminopeptidase 2 (Homo sapiens, UniProt P50579)
# Sequence (P50579 whole entry): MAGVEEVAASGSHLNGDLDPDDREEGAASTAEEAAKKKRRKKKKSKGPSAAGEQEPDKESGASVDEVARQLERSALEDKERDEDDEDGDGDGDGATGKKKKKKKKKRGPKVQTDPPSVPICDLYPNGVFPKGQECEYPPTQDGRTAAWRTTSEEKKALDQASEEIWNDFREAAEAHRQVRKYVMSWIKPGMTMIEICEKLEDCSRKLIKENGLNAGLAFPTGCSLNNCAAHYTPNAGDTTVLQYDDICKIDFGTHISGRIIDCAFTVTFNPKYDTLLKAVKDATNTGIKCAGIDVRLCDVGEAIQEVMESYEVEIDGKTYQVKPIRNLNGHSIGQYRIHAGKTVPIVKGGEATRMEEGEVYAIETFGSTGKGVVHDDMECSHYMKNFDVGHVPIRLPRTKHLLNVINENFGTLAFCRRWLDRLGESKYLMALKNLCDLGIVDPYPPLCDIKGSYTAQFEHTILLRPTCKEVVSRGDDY
# Settings: sf9
# Description: Inhibition of human MetAP-2 expressed in Sf9 cells incubated for 60 mins before MGMM substrate addition by fluorescence assay
row,SMILES,IC50
1,CN(C)CC1Cc2cc(Cl)ccc2C1=O.Cl (centres undefined),Not Active
2,C=C1Cc2cc(Cl)ccc2C1=O,Not Active
3,Cc1ccc2c(c1)CC(CN(C)C)C2=O.Cl (centres undefined),Not Active
4,COc1ccc2c(c1)C(=O)C(CN(C)C)C2.Cl (centres undefined),Not Active
5,C=C1Cc2cc(OC)c(OC)cc2C1=O,Not Active

# More lines, now with the values ahead:
row,IC50,SMILES
1,Not Active,C=C1Cc2cc(C)ccc2C1=O
2,Not Active,C=C1Cc2ccc(OC)cc2C1=O
3,Not Active,C=C1Cc2cc(Br)ccc2C1=O
4,Not Active,C=C1Cc2ccc(C)cc2C1=O

# Test system: Ca-Ski
# Assay: Cytotoxicity against human CaSki cells at 1.6 to 100 ug/ml after 72 hrs by crystal violet assay
# Assay type: functional, cell-based
# Settings: not given
row,SMILES,Activity
1,CN(C)CC1Cc2cc(Cl)ccc2C1=O.Cl (centres undefined),Active
2,C=C1Cc2cc(C)ccc2C1=O,Active
3,C=C1Cc2cc(Cl)ccc2C1=O,Active
4,C=C1Cc2ccc(OC)cc2C1=O,Active
5,C=C1Cc2cc(Br)ccc2C1=O,Active
6,Cc1ccc2c(c1)CC(CN(C)C)C2=O.Cl (centres undefined),Active
7,COc1ccc2c(c1)C(=O)C(CN(C)C)C2.Cl (centres undefined),Active
8,C=C1Cc2cc(OC)c(OC)cc2C1=O,Active
9,C=C1Cc2ccc(C)cc2C1=O,Active

# Test system: MeWo
# Assay: Cytotoxicity against human MeWo cells at 1.6 to 100 ug/ml after 72 hrs by crystal violet assay
# Assay type: functional, cell-based
# Settings: not given
row,SMILES,Activity
1,CN(C)CC1Cc2cc(Cl)ccc2C1=O.Cl (centres undefined),Active
2,C=C1Cc2cc(C)ccc2C1=O,Active
3,C=C1Cc2cc(Cl)ccc2C1=O,Active
4,C=C1Cc2ccc(OC)cc2C1=O,Active
5,C=C1Cc2cc(Br)ccc2C1=O,Active
6,Cc1ccc2c(c1)CC(CN(C)C)C2=O.Cl (centres undefined),Active
7,COc1ccc2c(c1)C(=O)C(CN(C)C)C2.Cl (centres undefined),Active
8,C=C1Cc2cc(OC)c(OC)cc2C1=O,Active
9,C=C1Cc2ccc(C)cc2C1=O,Active
